The test system of series [1] is TMD8 subcutaneous xenograft (human diffuse large B-cell lymphoma cells). In words: In vivo efficacy in TMD8 subcutaneous xenograft model in nude mice. How it is done: Example 7 Evaluation of In Vivo Efficacy of the Compound of the Present Invention in TMD8 Subcutaneous Xenograft Model
Objects: To investigate the anti-tumor activity of compound 19 in TMD8 subcutaneous xenograft model in nude mice.
Methods: Human diffuse large B-cell lymphoma cells TMD8 (acquired under license from Tokyo Medical and Dental University) were cultured in RPMI1640 medium containing 10% fetal bovine serum. 1×10^7 tumor cells suspended in RPMI1640 medium mixed well with Matrigel (purchased from Corning, USA) at 1:1 were implanted subcutaneously on the right flank of each male Balb/c nude mouse (Shanghai Lingchang Biotechnology Co., Ltd.), pretreated with cyclophosphamide (at a dose of 200 mg/kg, intraperitoneal injection 24 h before cell inoculation). […] All drugs were administered by oral gavage, once a day, and the vehicle control group was administered orally with 0.5% hydroxypropyl methylcellulose solution (pH=3).
Tumor volumes (tumor volume=0.5×long diameter×short diameter^2) and body weights of the mice were measured regularly. The tumor volume change and body weight were statistically analyzed, with p<0.05 considered statistically significant, and p<0.01 as extremely statistically significant.
The anti-tumor activity was evaluated by tumor growth inhibition. Tumor growth inhibition (TGI %)=100%×(1−(TVDt (treatment group)−TVD0 (treatment group))/(TVDt (control group)−TVD0 (control group))) Relative body weight (RBW %)=BWDt/BWD0×100%
wherein, TVD0 represents the tumor volume obtained at first measurement, namely, the tumor volume before drug administration, and TVDt represents the tumor volume on the day of measurement; BWD0 represents the body weight of the animal obtained at first measurement, namely, the body weight of the animal before drug administration; BWDt represents the body weight of the animal on the day of measurement.

Series [2] concerns the target phosphorylated BTK in Ramos cells (Homo sapiens (Human), UniProt Q06187). In words: Determination of phosphorylated BTK in Ramos cells (BTK phospho-Y223 HTRF). The following applies: anti-human IgM + hydrogen peroxide stimulation. It counts as cell-based. The essentials:
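Ramos cells starved 2 h in 1% FBS, then treated 1 h with compound (0.00018–3.0 μM, 0.3% DMSO). They were then stimulated 10 min at 37° C. with anti-human IgM (10 μg/mL) plus H2O2 (3.3 mM). Lysates read by BTK phospho-Y223 HTRF (665/615 nm ratio); IC50 fitted from inhibition normalized to stimulated and unstimulated controls.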

Series [3] has as its system B cell activation in rat whole blood. In words: Determination of B cell activity in whole blood of rats (anti-rat IgD induced B cell activation, flow cytometry). The format is cell-based. The conditions noted are these: anti-rat immunoglobulin D 10 μg/mL, 18 hours, inhibition of B cell activation. Here is the method: Example 4 Determination of B Cell Activity in Whole Blood of Rats
1. Reagents and Materials
Peripheral whole blood of female Wistar rats;
In the determination of the compound activity, the collected peripheral whole blood of rat was added to a 96 well plate at 80 μL/well and cultured in a 5% CO2, 37° C. cell incubator. After half an hour, the test compound was diluted with PBS in a 3-fold gradient to the corresponding concentrations, and then the diluted test compound with different concentrations was added to the culture system of rat whole blood at 10 μL/well (the final concentration of the test compound was 1.0, 0.33, 0.11, 0.037, 0.012, 0.0041, 0.0014, and 0.0005 μM, the final concentration of DMSO was 0.3%, double replicate wells), or the control solution (0.3% DMSO, 6 replicate wells) was added to the corresponding well at 10 μL/well, which were incubated in the cell incubator for one hour. Then 10 μL/well of anti-rat immunoglobulin D diluted in PBS (the final concentration was 10 μg/mL) was add to the treating wells of the test compound and control wells for anti-rat immunoglobulin D, or 10 μL/well of PBS was added to the negative control wells, which were mixed well to continue the culture in a 5% CO2, 37° C. cell incubator, and incubated for 18 hours.
On the second day, the 96-well plates were taken out and the flow cytometry antibody mixture (the final concentration of anti-rat B220PE antibody was 1 μg/mL and the final concentration of anti-rat CD86 FITC antibody was 1 μg/mL) diluted with PBS was added to each well of plate, which were incubated for 30 minutes in the dark, and then 50 μL of blood from each well was pipetted to the freshly prepared 500 μL of lysis buffer to lyse red blood cells. The plates were shaken for 20 minutes, centrifuged to remove the supernatant, then washed, fixed, and detected on a flow cytometer.
The B cell activation in the sample was determined by flow dyeing method.
The average value of the proportion of activated B cells in the wells with anti-rat immunoglobulin D but without the test compound was used as the control treating well for anti-rat immunoglobulin D, and the average value of the proportion of activated B cells in the wells without immunoglobulin D stimulation and without the test compound was used as the negative control treating well. According to the B cell activation ratio in each well, the inhibition ratio (%) of each concentration was calculated, and then the IC50 value was obtained by using the 205 model in XL-Fit 5.3 software (ID Business Solutions Limited).
The inhibition ratio is calculated as follows: inhibition ratio (%)=100%−{(treating well for the test compound−negative control treating well)/(control treating well for anti-rat immunoglobulin D−negative control treating well)}×100%, wherein,
Treating well for the test compound: represents the B cell activation ratio in rat whole blood treated with anti-rat immunoglobulin D and the test compound.
Control treating well for anti-rat immunoglobulin D: represents the B cell activation ratio in rat whole blood treated with anti-rat immunoglobulin D but without the test compound.
Negative control treating well: represents the B cell activation ratio in rat whole blood without the test compound and without immunoglobulin stimulation.
Through the above-mentioned test, the compound of the present invention has a potency to inhibit B cell activation in rat whole blood.

The target of the next series is BTK recombinant protein (Homo sapiens (Human), UniProt Q06187). The series can be described thus: Determination of biochemical BTK (Z'-LYTE kinase assay). An outline of the steps: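 Human BTK recombinant kinase (3.32 nM final) was preincubated with compound for 30 min at 4 °C. Reaction ran 1 h at room temperature with Tyr01 FRET peptide (2 μM) and ATP (32 μM); development protease then added. Coumarin 445 nm/fluorescein 520 nm emission ratio (400 nm excitation) gave inhibition across 8 concentrations, 3000–1.37 nM.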
Chain of BTK recombinant protein (Q06187 whole entry): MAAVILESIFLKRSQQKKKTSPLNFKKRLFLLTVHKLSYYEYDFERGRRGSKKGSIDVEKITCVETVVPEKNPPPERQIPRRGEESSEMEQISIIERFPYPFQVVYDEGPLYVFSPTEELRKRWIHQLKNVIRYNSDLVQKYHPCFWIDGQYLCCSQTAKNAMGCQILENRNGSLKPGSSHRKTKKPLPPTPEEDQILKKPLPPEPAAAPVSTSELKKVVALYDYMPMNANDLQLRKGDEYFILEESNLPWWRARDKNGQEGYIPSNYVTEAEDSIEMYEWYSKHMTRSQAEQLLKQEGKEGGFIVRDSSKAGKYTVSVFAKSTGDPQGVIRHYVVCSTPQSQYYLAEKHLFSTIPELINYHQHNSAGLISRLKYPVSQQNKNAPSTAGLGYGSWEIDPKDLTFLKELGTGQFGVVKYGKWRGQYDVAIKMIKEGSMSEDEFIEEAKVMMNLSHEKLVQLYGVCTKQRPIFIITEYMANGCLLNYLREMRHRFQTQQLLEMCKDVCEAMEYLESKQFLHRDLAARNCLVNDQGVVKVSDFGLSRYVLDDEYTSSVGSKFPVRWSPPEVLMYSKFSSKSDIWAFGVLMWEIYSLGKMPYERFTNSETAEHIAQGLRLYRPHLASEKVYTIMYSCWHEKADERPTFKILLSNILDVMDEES

[4] abbreviates: 50 mg/kg oral gavage once a day, Day 21.

Chain of phosphorylated BTK in Ramos cells (Q06187 whole entry): as above

`C=CC(=O)N1CCC[C@@H](n2nc(-c3ccc(Oc4ccccc4)cc3)c3c(N)ncnc32)C1` [Ibrutinib, reference compound]: the “Number of animals with CR (Day 21)” value in series [1] (50 mg/kg oral gavage once a day, 8 animals per group) came to 1. In addition, the “Tumor volume (mm^3) ± SD Day 0” value in series [1] (50 mg/kg oral gavage once a day, Day 0, before drug administration) is 397 ± 42 mm^3. In addition, in series [1] (setting [4]), the “TGI (%)” value is 42.4% and the “Tumor volume (mm^3) ± SD Day 21” value came out at 2027 ± 991 mm^3. Further, the “RBW (%) (Day 21)” value in series [1] (50 mg/kg oral gavage once a day, relative body weight) stood at 111.4%. Also, the “Tumor growth inhibition (TGI %)” value in series [1] (50 mg/kg, oral gavage once a day, 21 days after treatment, vs vehicle control) came to 42.4%.

Consider `CN1CCn2nc(Nc3cc(-c4ccnc(-n5ccn6c7c(cc6c5=O)CC(C)(C)C7)c4CO)cn4ncnc34)cc2C1` [Compound 16], for which the IC50 was found to be 2 nM in series [2] and 8 nM in series [3].

With `C[C@H]1CN(C2COC2)CCN1c1ccc(Nc2nc(-c3ccnc(-n4ccn5c6c(cc5c4=O)CC(C)(C)C6)c3CO)cn(C)c2=O)nc1` [Compound 20], the IC50 came out at 17 nM in series [2] and 462 nM in series [3].

With `CCn1cc(Nc2cc(-c3ccnc(-n4ccn5c6c(cc5c4=O)CC(C)(C)C6)c3CO)nn(C)c2=O)nn1` [Compound 25], the IC50 was found to be 24 nM in series [2] and 29 nM in series [3].

Turning to `CCn1cc(Nc2cc(-c3ccnc(-n4ccn5c6c(cc5c4=O)CC(C)(C)C6)c3CO)cn(C)c2=O)nn1` [Compound 24], the IC50 in series [2] amounted to 14 nM; in series [3] it was 85 nM.

For the molecule `C[C@@H]1CN(c2ccc(Nc3cc(-c4ccnc(-n5ccn6c7c(cc6c5=O)CC(C)(C)C7)c4CO)nn(C)c3=O)nc2)[C@@H](C)CN1C1COC1` [Compound 5], the IC50 in series [3] came out at 2 nM; at BTK recombinant protein, 9 nM.

As to `CC1(C)Cc2cc3c(=O)n(-c4nccc(-c5cc(Nc6cc7n(n6)CCN(C6COC6)C7)c6ncnn6c5)c4CO)ccn3c2C1` [Compound 13], the IC50 in series [2] is 1 nM; in series [3] it was 5 nM.

Consider `CC1(C)Cc2cc3c(=O)n(-c4nccc(-c5cc(Nc6cc7n(n6)CCNC7)c6ncnn6c5)c4CO)ccn3c2C1` [Compound 17], for which the results for the half-inhibitory concentration (IC50) in series [2] and in series [3] were 4 nM and 26 nM, respectively.

Turning to `CCn1cc(-c2ccnc(-n3ccn4c5c(cc4c3=O)CC(C)(C)C5)c2CO)cc(Nc2ccc(N3CCN(C4COC4)C[C@@H]3C)cn2)c1=O` [Compound 202], the IC50 in series [2] was found to be 17 nM; at BTK recombinant protein, 8 nM.

With `C[C@H]1CN(C2COC2)CCN1c1ccc(Nc2cc(-c3ccnc(-n4ccn5c6c(c(F)c5c4=O)CCCC6)c3CO)cn(C)c2=O)nc1` [Compound 161], the IC50 stood at 7 nM in series [2] and 4 nM on BTK recombinant protein.

`Cn1nc(-c2ccnc(-n3ccn4c5c(cc4c3=O)CC(C)(C)C5)c2CO)cc(Nc2cn(CC(F)(F)F)nn2)c1=O` [Compound 33]: the IC50 in series [2] is 26 nM; at BTK recombinant protein it was 25 nM.

Consider `Cc1cc(Nc2cc(-c3ccnc(-n4ccn5c6c(cc5c4=O)CC(C)(C)C6)c3CO)cn(C)c2=O)ncn1` [Compound 54], for which the IC50 in series [2] was 16 nM; at BTK recombinant protein, 15 nM.

For the molecule `Cn1cc(-c2ccnc(-n3ccn4c5c(cc4c3=O)CC(C)(C)C5)c2CO)cc(Nc2cc3n(n2)CCN(C2COC2)C3)c1=O` [Compound 124], the IC50 was 7 nM in series [2] and 6 nM on BTK recombinant protein.

For the origin of these results see patent US11478474B2, “2-(3′-(hydroxymethyl)-1-methyl-5-((5-(2-methyl-4-(oxetan-3-yl)piperazin-1-yl)pyridin-2-yl)amino)-6-oxo-1,6-dihydro-[3,4′-bipyridin]-2′-yl)-7,7-dimethyl-7,8-dihydro-2H-cyclopenta[4,5]pyrrolo[1,2-a]pyrazin-1(6H)-one as a BTK inhibitor” (HUTCHISON MEDIPHARMA LIMITED, priority 2020, dated 2022).
